# Reference: patent publication US20200009281A1, “ODOR CONTROL AGENT” (priority 2017, published 2020)
# Molecular target: T1, Urease Enzyme from Canavalia ensiformis (Jack bean) (Canavalia ensiformis, UniProt P07374)
# T1 construct: purchased
# Test: Headspace ammonia measurement over treated cat litter inoculated with synthetic urine and urease
# Type: biochemical
# Settings: headspace ammonia after 1 day; 100 g NATIONAL 12 Bentonite cat litter plus active, 10 mL inoculant (urea solution + urease); Sensidyne detector tubes
# Protocol: In a bottle add the following components: Urea (ACS Reagent Grade): 18.8 g, and 250 g of deionized water. The bottle is capped and mixed to dissolve urea. The pH of the solution is measured to confirm the pH is between 6.5 and 7.
# Immediately before use, mix 6.25 mL of Urease Enzyme from Canavalia ensiformis (Jack bean) in Glycerol (Type III, 500-800 units/mL) with the full volume of Synthetic Urine prepared above.
# Charge a plastic bag with 100 g of untreated NATIONAL™ 12 Bentonite (particle size approximately 1.6 mm) cat litter. Add the active component or mixture, as prepared in the Active Mixture Preparation section, to the bag containing the untreated litter. Seal the bag to prevent loss of material and mix by shaking for 30 seconds. Pour the mixture into a hexagonal plastic weighboat contained within a 1 gallon sealable plastic container having a lid with a hole covered with tape. […]
# Low (0.2-20 ppm) or high (5-260 ppm) range […] ® Ammonia Gas Detector Tubes are used to quantify the headspace ammonia concentration. The following procedure is used for ammonia detection and quantification in each test sample. […] Read the scale at the maximum point of the stained layer (yellow in color). Read and report the concentration immediately after measurement. If the reading is off scale, for example 20 ppm for the low range tubes, repeat the measurement using the high range gas detector tube. […]
# T1 sequence (P07374 whole entry, looked up): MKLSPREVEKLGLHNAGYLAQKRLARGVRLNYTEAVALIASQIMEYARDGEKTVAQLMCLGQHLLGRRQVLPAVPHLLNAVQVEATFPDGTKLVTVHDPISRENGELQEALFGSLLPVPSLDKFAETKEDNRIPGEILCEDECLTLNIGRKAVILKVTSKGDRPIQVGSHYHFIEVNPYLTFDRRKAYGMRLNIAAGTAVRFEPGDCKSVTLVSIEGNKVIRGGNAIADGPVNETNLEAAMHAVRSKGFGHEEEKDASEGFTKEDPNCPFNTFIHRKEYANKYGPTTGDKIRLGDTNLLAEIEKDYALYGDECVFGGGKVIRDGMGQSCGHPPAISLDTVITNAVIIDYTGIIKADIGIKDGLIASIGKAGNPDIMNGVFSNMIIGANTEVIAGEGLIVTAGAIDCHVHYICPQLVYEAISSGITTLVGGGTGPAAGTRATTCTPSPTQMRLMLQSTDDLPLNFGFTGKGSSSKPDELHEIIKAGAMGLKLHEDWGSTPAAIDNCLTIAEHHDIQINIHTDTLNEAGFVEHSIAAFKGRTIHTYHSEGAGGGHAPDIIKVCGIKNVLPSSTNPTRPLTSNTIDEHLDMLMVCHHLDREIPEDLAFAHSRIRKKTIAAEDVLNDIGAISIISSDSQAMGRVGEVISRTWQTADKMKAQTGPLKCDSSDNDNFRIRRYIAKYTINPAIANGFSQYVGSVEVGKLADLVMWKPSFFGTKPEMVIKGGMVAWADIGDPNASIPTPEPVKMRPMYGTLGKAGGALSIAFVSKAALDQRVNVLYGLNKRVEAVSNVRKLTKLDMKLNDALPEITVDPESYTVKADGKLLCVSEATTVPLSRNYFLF
row,SMILES,ppm Ammonia
1,"O=C([O-])CN(CCN(CC(=O)[O-])CC(=O)O)CC(=O)O.[K+].[K+] [Example 2, K2EDTA]",190 ppm
2,"O=C(O)CC(O)(CC(=O)O)C(=O)O [Example 3, Citric Acid]",140 ppm
